Here are results for 1 compound from patent publication US20130136811A1, “Compositions and Methods for Pain Reduction” (priority 2010, published 2013).

“And” between values parts separate entries of the source, which are not always exact repeats. Equal values may be shown once. Some results are limits rather than exact numbers.

Data set [1] deals with primary cultures of mouse cortical neurons. In words: NMDAR-mediated excitotoxicity, LDH cell death assay. Format: cell-based. The conditions noted are these: for neuroprotective effect (% protection): NMDA 200 μM 5 minutes, glycine 10 μM, LDH 24 hours after. The method, then: Studies were carried out to determine whether application of Wogonin can prevent N-methyl-D-Aspartate receptor (NMDAR)-mediated excitotoxicity in primary neuronal cultures from mouse cortex in vitro. In particular, detailed dose/response curves of Wogonin applied together with and for the duration of application of NMDA were generated. NMDAR-induced cytotoxicity can lead to fulminant cell death, necrosis, or a delayed form of cell death (apoptosis). While necrosis leads to immediate cell lysis, apoptotic cell death develops over time and is distinguished by a number of criteria such as characteristic morphological changes and DNA fragmentation. The LDH assay was used for the determination of cell death. This assay assesses primary necrosis as well as secondary, necrotic cell death subsequent to apoptosis.
For these experiments, cytotoxicity assays were conducted in primary cultures of mouse cortical neurons after 10 days in vitro using an art-recognized assay systema (Sun X, Chan L N, Gong X, Sucher N J. N-methyl-D-Aspartate receptor antagonist activity in traditional Chinese stroke medicines. NeuroSignals, 2003; 12:31-38.) Cultured neurons were exposed to NMDA (200 μM; 5 minutes) and co-agonist glycine (10 μM) in the nominal absence of magnesium and the presence of increasing concentrations of Wogonin. Measurements were performed for each dose of Wogonin in triplicate in at least three independent experiments. Wogonin was added to the culture in three different ways: 1) before, concomitant with and after NMDA, 2) concomitant with and after NMDA and 3) after NMDA. Twenty-four hours after exposure to NMDA cell death is determined by colorimetric lactate dehydrogenase (LDH) assay.

In data set [2] the test system is mouse formalin pain model. The experiment in a line: mouse formalin pain model (paw licking). Format: in vivo. The conditions noted are these: for Duration of Licking: 200 mg/kg, individual animals 01-08; for Area Under the Curve, Drug Treated: 200 mg/kg i.p. The protocol: The formalin test for antinociceptive activity is described in numerous publications, e.g., Hunskaar, S. O. B. Fasmer, and K. Hole, J. Neurosci. Methods 14: 69-76 (1985). The formalin test is a chemically-induced tonic pain model in which biphasic changes of nociceptive behavior are assessed and spinal/supraspinal plasticity of nociception is considered as a molecular basis for neuropathic pain particularly during the second (late) phase of the test, during which most clinically used drugs against neuropathic pain are active. The formalin test is accepted as an art recognized model of persistent clinical pain.
The formalin test (Wheeler-Aceto H, Porreca F, Cowan A. The rat paw formalin test: comparison of noxious agents. Pain 1990; 40:229-38) involves injection of 0.5% formalin into the mouse hind paw. The injection elicits a distinct biphasic behavioral profile in response to the formalin injection characterized by licking of the affected paw, and the number of licks is measured as a proxy for perceived pain. The first (acute) phase corresponds to the direct stimulation of peripheral fibers, while the second (inflammatory) phase is caused by the release of inflammatory mediators from the damaged tissue and nerve endings. Thus, this model is ideally suited to test the efficacy of Wogonin against the acute and chronic hyper-responsive neuronal discharges following activation of peripheral nerve fibers.
The results of the formalin test are given both as raw data (“Response”) and in an aggregate, analyzed form (“Analysis”). In the Response section, each Trial involves sixteen animals, eight controls given an i.p. injection of vehicle and eight given Wogonin at a specified dose. The data recorded for each animal is the amount of time spent licking the affected hind paw in a two-minute period. These two-minute periods occur at five-minute intervals and continue for […]. […] From this plot, the area under the cure (AUC) is determined for each animal during both the acute and inflammatory stages. The AUC for each phase is shown in the analysis section of the data sheet for both control and Wogonin-treated animals. The AUC for each Wogonin-treated animal is compared to the average result from the control group, yielding an average percent of control (reported with the SEM and p value). Significant reductions in this number indicate a reduction in licking, and, presumably, a reduction of perceived pain.
Male Swiss Webster NIH mice (20-30 g; Harlan, San Diego, Calif.) were used in the experiments described herein. Food was withdrawn on the day of experiment. Mice were placed in Plexiglass jars for at least 1 hour to accommodate to the environment. Following the accommodation period, mice were weighed and given Wogonin administered intraperitoneal (i.p.) or the appropriate volume of vehicle (10% Tween-80). Fifteen minutes after the i.p. dosing, mice were injected with formalin (20 μL of 5% formaldehyde solution in saline) into the dorsal surface of the right hind paw. Mice were transferred to the Plexiglass jars and monitored for the amount of time spent licking or biting the injected paw. Periods of licking and biting were recorded in 5 minute intervals for 40 minutes after the formalin injection. All experiments were done in a blinded manner. The early phase (acute) of the formalin response is measured as licking/biting between 0-10 minutes, and the late phase (inflammatory) is measured from 10-40 minutes. Differences between vehicle and Wogonin-treated groups are analyzed by one-way analysis of variance (ANOVA). A P value <0.05 is considered significant. Activity in blocking the acute and second phase of formalin-induced paw-licking activity is indicative that compounds are efficacious for acute and chronic pain. A significant response to both the acute and the inflammatory phases of the test was observed.

On to `COc1c(O)cc(O)c2c(=O)cc(-c3ccccc3)oc12` [Wogonin, 5,7-dihydroxy-8-methoxyflavone], for which the “neuroprotective effect (% protection)” value is listed as over 75% in data set [1] (10^−4 M Wogonin) and 0% in data set [1] (10^−9 M Wogonin). Besides, the IC50 (commonly the concentration at which inhibition is half-maximal) in data set [1] (Cortical neurone, mouse cortical neurons, LDH assay, read-out: IC50, inhibition of neuronal death on exposure to N-methyl-D-aspartate) was determined as 2000 nM. Further, the “Duration of Licking” value was 0.00 sec (3×) and 35.48 sec and 21.75 sec and 53.96 sec and 44.26 sec and 32.29 sec in data set [2] (0 mm); 0.00 s in data set [2] (5 min); 0.00 s in data set [2] (10 min); 0.00 sec (7×) and 16.00 sec in data set [2] (20 min); 0.00 sec (5×) and 3.89 sec and 20.61 sec and 10.96 sec in data set [2] (25 min); 0.00 sec (4×) and 29.12 sec and 55.07 sec and 2.95 sec and 37.69 sec in data set [2] (30 min). For the same compound, the “Duration of Licking” value was 0.00 sec (6×) and 21.24 sec and 12.73 sec in data set [2] (35 min); 0.00 sec (6×) and 20.18 sec and 27.36 sec in data set [2] (40 min). Besides, the results for the “Area Under the Curve, Drug Treated” value in data set [2] (Acute phase) and in data set [2] (Inflammatory phase) were 58.7 and 146.3, respectively. The overt toxicity entry in data set [2] (mouse models) is recorded as “Overt toxicity was not seen”.
